Measured values published in patent US5512553A, “7-(substituted)-8-(substituted)-9-(substituted amino)-6-demethyl-6-deoxytetracyclines” (American Cyanamid Company, priority 1995, dated 1996).
Where a name gives a salt, the structure may show the parent alone. Read-outs that look alike come from different tables or passages of the source.

Columns and labels:
[1] = tested on: tetracycline sensitive and resistant Gram-positive and Gram-negative bacteria; experiment: In vitro antibacterial activity, summary statements of the testing results; assay type: cell-based
Experimental: (§1) Method for In Vitro Antibacterial Evaluation (Table I)
(§2) The minimum inhibitory concentration (MIC), the lowest concentration of the antibiotic which inhibits growth of the test organism, is determined by the agar dilution method using Muller-Hinton II agar (Baltimore Biological Laboratories). An inoculum density of 1-5×10^5 CFU/ml and an antibiotic concentration (32-≤0.015 μg/ml) is used. The plates are incubated for 18 hours at 35° C. in a forced air incubator. The test organisms comprise strains sensitive to tetracycline and genetically defined strains that are resistant to tetracycline, due to inability to bind bacterial ribosomes (tetM).

[2] = tested on: S. aureus UBMS 90-2 (tetM); experiment: microbe, parasite or virus in culture; assay type: cell-based; conditions: Staphylococcus aureus, 18 h
Experimental: as §1, §2

[3] = tested on: S. aureus UBMS 88-7 (tetK); experiment: microbe, parasite or virus in culture; assay type: cell-based; conditions: Staphylococcus aureus, 18 h
Experimental: as §1, §2

[4] = tested on: S. aureus UBMS 88-5 (tetM); experiment: microbe, parasite or virus in culture; assay type: cell-based; conditions: Staphylococcus aureus, 18 h
Experimental: as §1, §2

[5] = tested on: S. aureus UBMS 90-1 (tetM); experiment: microbe, parasite or virus in culture; assay type: cell-based; conditions: Staphylococcus aureus, 18 h
Experimental: as §1, §2

E. coli UBMS 88-1 (tetB) = experiment: microbe, parasite or virus in culture; assay type: cell-based; conditions: Escherichia coli, 18 h
Experimental: as §1, §2

Enteroc. spp. 12201 = experiment: In vitro antibacterial evaluation, MIC by agar dilution; assay type: cell-based
Experimental: as §1, §2

[6] = tested on: E. coli UBMS 89-2 (sensitive); experiment: as above; assay type: cell-based; conditions: Escherichia coli, Muller-Hinton II agar, 18 hours at 35° C.
Experimental: as §1, §2

[7] = tested on: S. aureus UBMS 88-4 (sensitive); experiment: as above; assay type: cell-based; conditions: Staphylococcus aureus
Experimental: as §1, §2

[8] = tested on: S. aureus ATCC 29213 (sensitive); experiment: as above; assay type: cell-based; conditions: Staphylococcus aureus, ATCC29213; agar dilution, Muller-Hinton II agar, 18 hours at 35° C.; S. aureus ATCC 29213 (sensitive); read-out: MIC
Experimental: as §1, §2

S. faecal. ATCC 29212 = experiment: as above; assay type: cell-based
Experimental: as §1, §2

[9] = tested on: E. coli UBMS 88-2 (sensitive); experiment: as above; assay type: cell-based; conditions: Escherichia coli, 18 h
Experimental: as §1, §2

E. coli ATCC 25922 = experiment: as above; assay type: cell-based; conditions: Escherichia coli
Experimental: as §1, §2

[10] = tested on: S. aureus UBMS 90-3 (sensitive); experiment: as above; assay type: cell-based; conditions: Staphylococcus aureus; agar dilution, Muller-Hinton II agar, 18 hours at 35° C.; S. aureus UBMS 90-3 (sensitive); read-out: MIC
Experimental: as §1, §2

[11] = tested on: S. aureus IVES 1983 (MP) (meth. resistant); experiment: as above; assay type: cell-based; conditions: Staphylococcus aureus
Experimental: as §1, §2

[12] = tested on: S. aureus SMITH (MP) (sensitive); experiment: as above; assay type: cell-based; conditions: Staphylococcus aureus; agar dilution, Muller-Hinton II agar, 18 hours at 35° C.; S. aureus SMITH (MP) (sensitive); read-out: MIC
Experimental: as §1, §2

[13] = tested on: S30 extract from derivative of E. coli MRE 600 containing the tetM determinant; experiment: E. coli in vitro cell free protein translation system, TetM S30; assay type: biochemical; conditions: cell-free extracts from strain MRE600 (tetM)
Excerpt: (§3) E. coli in Vitro protein Translation System (Table II)
(§4) An in vitro, cell free, protein translation system using extracts from E. coli strain MRE 600 (tetracycline sensitive) and a derivative of MRE 600 containing the tetM determinant has been developed based on literature methods J. M. Pratt, Coupled Transcription-translation in Prokaryotic Cell-free Systems, Transcription and Translation, a Practical Approach, (B. D. Hames and S. J. Higgins, eds) p. 179-209, IRL Press, Oxford-Washington, 1984!.
(§5) Using the system described above, the tetracycline compounds of the present invention are tested for their ability to inhibit protein synthesis in vitro. Briefly, each 10 μl reaction contains S30 extract (a whole extract) made from either tetracycline sensitive cells or an isogenic tetracycline resistant (tetM) strain, low molecular weight components necessary for transcription and translation (i.e., ATP and GTP), a mix of 19 amino acids (no methionine), ^35 S labeled methionine, DNA template (either pBR322 or pUC119), and either DMSO (control) or the novel tetracycline compound to be tested ("novel TC") dissolved in DMSO.
(§6) The reactions are incubated for 30 minutes at 37° C. Timing is initiated with the addition of the S30 extract, the last component to be added. After 30 minutes, 2.5 μl of the reaction is removed and mixed with 0.5 ml of 1N NaOH to destroy RNA and tRNA. Two to three ml of 25% trichloroacetic acid is added and the mixture incubated at room temperature for 15 minutes. The trichloroacetic acid precipitated material is collected on Whatman GF/C filters and washed with a solution of 10% trichloroacetic acid. The filters are dried and the retained radioactivity, representing incorporation of ^35 S-methionine into polypeptides, is counted using standard liquid scintillation methods.
(§7) The percent inhibition (P.I.) of protein synthesis is determined to be: [formula]

[14] = tested on: S30 extract from E. coli strain MRE 600 (tetracycline sensitive); experiment: E. coli in vitro cell free protein translation system, Wild Type S30; assay type: biochemical; conditions: for % Inhibition Wild Type S30: 35S-methionine incorporation, 30 minutes at 37° C.
Excerpt: as §3, §4, §5, §6, §7

E. coli UBMS 89-1 (tetM) = experiment: microbe, parasite or virus in culture; assay type: cell-based; conditions: Escherichia coli, 18 h
Experimental: as §1, §2

[15] = tested on: S. aureus IVES 2943 (meth. resistant); experiment: In vitro antibacterial evaluation, MIC by agar dilution; assay type: cell-based; conditions: Staphylococcus aureus, 18 h
Experimental: as §1, §2

S. haemol. AVAH 88-3 = experiment: as above; assay type: cell-based; conditions: 18 h
Experimental: as §1, §2

[16] = tested on: Staphylococcus aureus strain Smith (tetracycline sensitive); experiment: In vivo antibacterial evaluation, acute lethal infection in mice; conditions: 168 h, female mice CD-1, intraperitoneal challenge with S. aureus Smith, dosed subcutaneously or orally 30 minutes after infection, 7 day survival ratios
Experimental: In Vivo Antibacterial Evaluation (Table III)
The therapeutic effects of tetracyclines are determined against an acute lethal infection with Staphylococcus aureus strain Smith (tetracycline sensitive). Female, mice, strain CD-1 (Charles River Laboratories), 20±2 grams, are challenged by an intraperitoneal injection of sufficient bacteria (suspended in hog mucin) to kill non-treated controls within 24-48 hours. Antibacterial agents, contained in 0.5 ml of 0.2% aqueous agar, are administered subcutaneously or orally 30 minutes after infection. When an oral dosing schedule is used, animals are deprived of food for 5 hours before and 2 hours after infection. Five mice are treated at each dose level. The 7 day survival ratios from 3 separate tests are pooled for calculation of median effective dose (ED50).

| Structure (SMILES) | MIC [2] | MIC [3] | MIC [4] | MIC [5] | MIC (E. coli UBMS 88-1 (tetB)) | MIC [6] | MIC [8] | MIC [9] | MIC [10] | MIC [12] | further results |
| --- | --- | --- | --- | --- | --- | --- | --- | --- | --- | --- | --- |
| CN(C)[C@@H]1C(O)=C(C(N)=O)C(=O)[C@@]2(O)C(O)=C3C(=O)c4c(cc(Cl)c(NC=O)c4O)CC3CC12 (stereo partly shown) [A, 8-Chloro-4-(dimethylamino)-9-(formylamino)-1,4,4a,5,5a,6,11,12a-octahydro-3,10,12,12a-tetrahydroxy-1,11-dioxo-2-naphthacenecarboxamide hydrochloride or sulfate] | 0.03 µg/mL | 16 µg/mL | 0.12 µg/mL | 0.25 µg/mL | 32 µg/mL | 0.25 µg/mL | < 0.015 µg/mL | 0.12 µg/mL | < 0.015 µg/mL | < 0.015 µg/mL | in vitro activity, in words ([1]; tetracycline resistant strains containing tetM (S. aureus UBMS 88-5, 90-1 and 90-2)): good in vitro activity; in vitro activity compared with minocycline, in words ([1]; tetracycline susceptible strains): equally as effective as minocycline; MIC (Enteroc. spp. 12201; agar dilution, Muller-Hinton II agar, 18 hours at 35° C., Enteroc. spp. 12201, read-out: MIC): 0.5 µg/mL; MIC ([7]; agar dilution, Muller-Hinton II agar, 18 hours at 35° C., S. aureus UBMS 88-4 (sensitive), read-out: MIC): < 0.015 µg/mL; MIC (S. faecal. ATCC 29212; agar dilution, Muller-Hinton II agar, 18 hours at 35° C., S. faecal. ATCC 29212, read-out: MIC): < 0.015 µg/mL; MIC (E. coli ATCC 25922; ATCC25922, agar dilution, Muller-Hinton II agar, 18 hours at 35° C., E. coli ATCC 25922, read-out: MIC): 0.12 µg/mL; MIC ([11]; agar dilution, Muller-Hinton II agar, 18 hours at 35° C., S. aureus IVES 1983 (MP) (meth. resistant), read-out: MIC): 32 µg/mL; inhibition of protein synthesis, in words [13]: effectively inhibited; % Inhibition Wild Type S30 ([14]; Conc. 0.3 mg/ml): 98%; % Inhibition Wild Type S30 ([14]; Conc. 1.0): 93%; inhibition of protein synthesis, in words ([14]; cell-free extracts from tetracycline susceptible strain MRE600): effectively inhibited |
| CN(C)c1c(Cl)cc(O)c2c1CC1CC3[C@H](N(C)C)C(O)=C(C(N)=O)C(=O)[C@@]3(O)C(O)=C1C2=O (stereo partly shown) [B, 8-Chloro-4,7-bis(dimethylamino)-1,4,4a,5-5a,6,11,12a-octahydro-3,10,12,12a-tetrahydroxy-1,11-dioxo-2-naphthacenecarboxamide sulfate] | 0.5 µg/mL | 0.5 µg/mL | 0.5 µg/mL | 0.05 µg/mL | > 32 µg/mL | 16 µg/mL | ≤ 0.015 µg/mL | 8 µg/mL | 0.06 µg/mL | 0.06 µg/mL | MIC (E. coli UBMS 89-1 (tetM)): > 32 µg/mL; MIC (Enteroc. spp. 12201; 18 h): 1 µg/mL; MIC ([7]; 18 h): 0.03 µg/mL; MIC (S. faecal. ATCC 29212; 18 h): 1 µg/mL; MIC [15]: 1 µg/mL; MIC (S. haemol. AVAH 88-3): 0.25 µg/mL; MIC (E. coli ATCC 25922; ATCC25922, 18 h): 8 µg/mL; MIC ([11]; 18 h): 1 µg/mL; ED50 [16]: > 16 mg/kg |
